{"source": "patent US11833229B2", "about": "“Labeling precursors with squaric acid coupling” (SCV—SpezialChemikalienVertrieb GmbH, priority 2019, dated 2023)", "key": {"[1]": {"test": "Stability of [44Sc]Sc-AAZTA.QS.PSMA", "type": "in vitro ADME", "conditions": "over a period of 24 hours", "experimental": "Similar to DATA, the AAZTA chelator can also be labeled with radio nuclides such as ^44Sc and ^68Ga under mild conditions. In the instant example, the radioisotope ^44Sc is used and the properties of the radiotracer [^44Sc]Sc-AAZTA.QS.PSMA are investigated. The synthesis shown in FIG. 44 was readily carried out with high yield. […] The stability of [^44Sc]Sc-AAZTA.QS.PSMA exceeds 95% over a period of 24 hours (FIG. 46)."}, "LNCap tumor": {"test_system": "LNCap tumor", "test": "Ex vivo activities of [44Sc]Sc-AAZTA.QS.PSMA with and without 2-PMPA blocking", "type": "in vivo, mice", "conditions": "for Ex vivo activity kindneys: kidneys", "experimental": "The radiotracer [^44Sc]Sc-AAZTA.QS.PSMA was further examined in vivo in three mice, each carrying an LNCap tumor. In addition blocking tests were carried out on one of the mice. […] The same applies to the kidneys."}}}
{"molecule": "O=C(O)CCC(NC(=O)NC(CCCCNc1c(NCCNC(=O)CCCCC2(N(CC(=O)O)CC(=O)O)CN(CC(=O)O)CCN(CC(=O)O)C2)c(=O)c1=O)C(=O)O)C(=O)O.[44Sc+3]", "note": "(stereo not shown) [^44Sc.AAZTA.QS.KuE]", "values": [{"measurement": "stability", "setting": "[1]", "result": "exceeds 95%"}, {"measurement": "Ex vivo activity LN", "setting": "LNCap tumor; Block (+PMPA)", "result": 0.39, "unit": "% ID/g"}, {"measurement": "Ex vivo activity LN", "setting": "LNCap tumor; mouse (1), no blocking", "result": 1.33, "unit": "% ID/g"}, {"measurement": "Ex vivo activity LN", "setting": "LNCap tumor; mouse (2), no blocking", "result": 0.38, "unit": "% ID/g"}, {"measurement": "Ex vivo activity blood", "setting": "LNCap tumor; Block (+PMPA)", "result": 0.34, "unit": "% ID/g"}, {"measurement": "Ex vivo activity blood", "setting": "LNCap tumor; mouse (1), no blocking", "result": 0.96, "unit": "% ID/g"}, {"measurement": "Ex vivo activity blood", "setting": "LNCap tumor; mouse (2), no blocking", "result": 0.41, "unit": "% ID/g"}, {"measurement": "Ex vivo activity bone", "setting": "LNCap tumor; Block (+PMPA)", "result": 0.10, "unit": "% ID/g"}, {"measurement": "Ex vivo activity bone", "setting": "LNCap tumor; mouse (1), no blocking", "result": 0.46, "unit": "% ID/g"}, {"measurement": "Ex vivo activity bone", "setting": "LNCap tumor; mouse (2), no blocking", "result": 0.29, "unit": "% ID/g"}, {"measurement": "Ex vivo activity heart", "setting": "LNCap tumor; Block (+PMPA)", "result": 0.11, "unit": "% ID/g"}, {"measurement": "Ex vivo activity heart", "setting": "LNCap tumor; mouse (1), no blocking", "result": 0.41, "unit": "% ID/g"}, {"measurement": "Ex vivo activity heart", "setting": "LNCap tumor; mouse (2), no blocking", "result": 0.14, "unit": "% ID/g"}, {"measurement": "Ex vivo activity kindneys", "setting": "LNCap tumor; Block (+PMPA)", "result": 7.97, "unit": "% ID/g"}, {"measurement": "Ex vivo activity kindneys", "setting": "LNCap tumor; mouse (1), no blocking", "result": 119.86, "unit": "% ID/g"}, {"measurement": "Ex vivo activity kindneys", "setting": "LNCap tumor; mouse (2), no blocking", "result": 42.76, "unit": "% ID/g"}, {"measurement": "Ex vivo activity liver", "setting": "LNCap tumor; Block (+PMPA)", "result": 0.16, "unit": "% ID/g"}, {"measurement": "Ex vivo activity liver", "setting": "LNCap tumor; mouse (1), no blocking", "result": 0.42, "unit": "% ID/g"}, {"measurement": "Ex vivo activity liver", "setting": "LNCap tumor; mouse (2), no blocking", "result": 0.16, "unit": "% ID/g"}, {"measurement": "Ex vivo activity lung", "setting": "LNCap tumor; Block (+PMPA)", "result": 0.06, "unit": "% ID/g"}, {"measurement": "Ex vivo activity lung", "setting": "LNCap tumor; mouse (1), no blocking", "result": 1.31, "unit": "% ID/g"}, {"measurement": "Ex vivo activity lung", "setting": "LNCap tumor; mouse (2), no blocking", "result": 0.59, "unit": "% ID/g"}, {"measurement": "Ex vivo activity muscle", "setting": "LNCap tumor; Block (+PMPA)", "result": 0.05, "unit": "% ID/g"}, {"measurement": "Ex vivo activity muscle", "setting": "LNCap tumor; mouse (1), no blocking", "result": 0.38, "unit": "% ID/g"}, {"measurement": "Ex vivo activity muscle", "setting": "LNCap tumor; mouse (2), no blocking", "result": 0.13, "unit": "% ID/g"}, {"measurement": "Ex vivo activity salivary glands", "setting": "LNCap tumor; Block (+PMPA)", "result": 0.11, "unit": "% ID/g"}, {"measurement": "Ex vivo activity salivary glands", "setting": "LNCap tumor; mouse (1), no blocking", "result": 0.51, "unit": "% ID/g"}, {"measurement": "Ex vivo activity salivary glands", "setting": "LNCap tumor; mouse (2), no blocking", "result": 0.18, "unit": "% ID/g"}, {"measurement": "Ex vivo activity small intestine", "setting": "LNCap tumor; Block (+PMPA)", "result": 0.35, "unit": "% ID/g"}, {"measurement": "Ex vivo activity small intestine", "setting": "LNCap tumor; mouse (1), no blocking", "result": 0.62, "unit": "% ID/g"}, {"measurement": "Ex vivo activity small intestine", "setting": "LNCap tumor; mouse (2), no blocking", "result": 0.22, "unit": "% ID/g"}, {"measurement": "Ex vivo activity spleen", "setting": "LNCap tumor; Block (+PMPA)", "result": 0.15, "unit": "% ID/g"}, {"measurement": "Ex vivo activity spleen", "setting": "LNCap tumor; mouse (1), no blocking", "result": 6.19, "unit": "% ID/g"}, {"measurement": "Ex vivo activity spleen", "setting": "LNCap tumor; mouse (2), no blocking", "result": 1.15, "unit": "% ID/g"}, {"measurement": "Ex vivo activity tumor", "setting": "LNCap tumor; Block (+PMPA)", "result": 0.53, "unit": "% ID/g"}, {"measurement": "Ex vivo activity tumor", "setting": "LNCap tumor; mouse (1), no blocking", "result": 14.73, "unit": "% ID/g"}, {"measurement": "Ex vivo activity tumor", "setting": "LNCap tumor; mouse (2), no blocking", "result": 14.14, "unit": "% ID/g"}]}
